In US4870183A, “Novel amino acid derivatives” (priority 1986, dated 1989):
Read-outs that look alike come from different tables or passages of the source.

Key:
human renin = target: T1, human renin (Homo sapiens, UniProt P00797); assay: Inhibitory effect on human renin-sheep renin substrate reaction system in vitro; assay type: biochemical
T1 sequence (P00797 67-406): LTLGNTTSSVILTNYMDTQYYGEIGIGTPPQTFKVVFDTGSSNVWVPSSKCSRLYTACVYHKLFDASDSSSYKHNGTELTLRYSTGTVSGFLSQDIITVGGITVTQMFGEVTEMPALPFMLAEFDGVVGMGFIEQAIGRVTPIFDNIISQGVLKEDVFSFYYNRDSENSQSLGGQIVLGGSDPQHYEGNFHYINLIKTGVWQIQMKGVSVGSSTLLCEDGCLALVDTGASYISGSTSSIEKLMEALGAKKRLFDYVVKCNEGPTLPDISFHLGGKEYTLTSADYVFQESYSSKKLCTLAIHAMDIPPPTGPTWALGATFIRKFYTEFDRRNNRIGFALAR
Experimental: Inhibitory effect on human renin-sheep renin substrate reaction system in vitro
The mixture was incubated for 15 minutes on a water bath at 37° C., and the reaction mixture was allowed to stand for 5 minutes on a water bath at 100° C. to stop the reaction. After cooling, 200 μl of the solution was taken up and the amount of angiotensin I produced by the addition of renin was determined by radioimmunoassay using renin riabead kit (DAINABOT).
The inhibitory effect was calculated by the following equation.
As a control, the same procedure as above was carried out by using 50 μl of dimethyl sulfoxide alone in place of the 50 μl of dimethyl sulfoxide solution containing an amino acid compound of the present invention. [formula]

[1] = target: T2, renin in human high renin plasma (Homo sapiens, UniProt P00797); assay: Renin inhibitory effect in a human high renin plasma; assay type: biochemical
T2 construct: from tissue; host or cells: human high renin plasma
T2 sequence (P00797 67-406): T1 sequence (P00797 67-406)
Experimental: Renin Inhibitory Effect in a Human High Renin Plasma
Two hundred μl of the mixture was placed on an ice bath, at 4° C., and remaining mixture (800 μl) was incubated for 60 minutes at 37° C. on a water bath. Two hundred μl of the incubated remaining mixture was chilled immediately on an ice bath, and the amount (A) of angiotensin I produced was determined by radioimmunoassay using renin riabead kit (DAINABOT).
The amount (B) of angiotensin I in the mixture placed on an ice bath at 4° C. was also determined by radioimmunoassay.
As a control, the same procedure as above was carried out by using 100 μl of dimethyl sulfoxide alone in place of 100 μl of dimethyl sulfoxide solution containing an amino acid compound of the present invention.
The net amount was estimated as the difference between A and B.
The inhibitory effect was calculated by the following equation. [formula]

[2] = human renin-sheep renin substrate system, pH 7.4, 37° C., 15 minutes, read-out: IC50 molar concentration
[3] = human high renin plasma, pH 7.0, 37° C., 60 minutes, read-out: IC50 molar concentration

| Molecule | IC50 (human renin; [2]) [nM] | IC50 [1, 3] [nM] | IC50 (human renin) [nM] | IC50 [1] [nM] |
| --- | --- | --- | --- | --- |
| CC(C)OC(=O)C(O)[C@H](CC1CCCCC1)NC(=O)[C@H](Cc1c[nH]cn1)NC(=O)C(Cc1ccccc1O)Cc1ccccc1O (stereo partly drawn) [Compound C, (2RS 3S)-3-{N-[Bis(2-hydroxybenzyl)acetyl]-L-histidyl}amino-4-cyclohexyl-2-hydroxybutyric acid isopropyl ester] | 180 | 400 |  |  |
| O=C(N[C@@H](Cc1c[nH]cn1)C(=O)N[C@@H](CC1CCCCC1)C(O)C(=O)OC1CCCC1)C(Cc1ccccc1)Cc1ccccc1 (mixture of isomers) [Compound K, (2RS, 3S)-3-[N-(dibenzylacetyl)-L-histidyl]amino-4-cyclohexyl-2-hydroxybutyric acid cyclopentyl ester] |  |  | 18 | 280 |
| CC(C)OC(=O)C(O)[C@H](CC1CCCCC1)NC(=O)[C@H](Cc1c[nH]cn1)NC(=O)C(Cc1ccc(Cl)cc1)Cc1ccc(Cl)cc1 (mixture of isomers) [Compound J, (2RS, 3S)-3-{N-[Bis(4-chlorobenzyl)acetyl]-L-histidyl}amino-4-cyclohexyl-2-hydroxybutyric acid isopropyl ester] |  |  | 470 | 5900 |
| CC(C)OC(=O)C(O)[C@H](CC1CCCCC1)NC(=O)[C@H](Cc1c[nH]cn1)NC(=O)C(Cc1ccccc1C(F)(F)F)Cc1ccccc1C(F)(F)F (mixture of isomers) [Compound B, (2RS, 3S)-3-{N-[Bis(2-trifluoromethylbenzyl)acetyl]-L-histidyl}amino-4-cyclohexyl-2-hydroxybutyric acid isopropyl ester] |  |  | 120 | 1200 |
| CC(C)OC(=O)C(O)[C@H](CC1CCCCC1)NC(=O)[C@H](Cc1c[nH]cn1)NC(=O)C(Cc1ccccc1Br)Cc1ccccc1Br (mixture of isomers) [Compound I, (2RS, 3S)-3-{N-[Bis(2-bromobenzyl)acetyl]-L-histidyl}amino-4-cyclohexyl-2-hydroxybutyric acid isopropyl ester] |  |  | 18 | 430 |
| CC(C)OC(=O)C(O)[C@H](CC1CCCCC1)NC(=O)[C@H](Cc1c[nH]cn1)NC(=O)C(Cc1ccccc1)Cc1ccccc1 (mixture of isomers) [Compound E, (2RS, 3S)-3-[N-(dibenzylacetyl)-L-histidyl}amino-4-cyclohexyl-2-hydroxybutyric acid isopropyl ester] |  |  | 52 | 260 |
| Cc1ccccc1CC(Cc1ccccc1C)C(=O)N[C@@H](Cc1c[nH]cn1)C(=O)N[C@@H](CC1CCCCC1)C(O)C(=O)OC(C)C (mixture of isomers) [Compound W, (2RS, 3S)-3-{N-[Bis(2-methylbenzyl)-acetyl]-L-histidyl}amino-4-cyclohexyl-2-hydroxybutyric acid isopropyl ester] |  |  | 58 | 280 |
| O=C(N[C@@H](Cc1cnc[nH]1)C(=O)N[C@@H](CC1CCCCC1)C(O)C(=O)OC(CF)CF)C(Cc1ccccc1)Cc1ccccc1 (stereo partly drawn) [Compound P] |  |  | 19 | 130 |
| (2RS, 3)-3-{N-[Bis(2-fluorobenzyl)acetyl]-L-histidyl}amino-4-cyclohexyl ester [Compound S] | 62 | 430 |  |  |
| CC(C)CNC(=O)C(O)[C@H](CC1CCCCC1)NC(=O)[C@H](Cc1c[nH]cn1)NC(=O)C(Cc1cccc2c1OCO2)Cc1cccc2c1OCO2 (mixture of isomers) [Compound Y, (2RS, 3S)-3-{N-[Bis(2,3-methylenedioxybenzyl)acetyl]-L-histidyl}amino-4-cyclohexyl-2-hydroxybutyric acid isobutyl amide] |  |  | 1800 | 3400 |
| Cc1cccc(CC(Cc2cccc(C)c2C)C(=O)N[C@@H](Cc2c[nH]cn2)C(=O)N[C@@H](CC2CCCCC2)C(O)C(=O)OC(C)C)c1C (mixture of isomers) [Compound M, (2RS, 3S)-3-{N-[Bis(2,3-dimethylbenzyl)acetyl]-L-histidyl}amino-4-cyclohexyl-2-hydroxybutyric acid isopropyl ester] |  |  | 77 | 860 |
| CC(C)OC(=O)C(O)[C@H](CC1CCCCC1)NC(=O)[C@H](Cc1c[nH]cn1)NC(=O)C(Cc1ccc(F)cc1)Cc1ccc(F)cc1 (mixture of isomers) [Compound O, (2RS, 3S)-3-{N-[Bis(4-fouorobenzyl)acetyl]-L-histidyl}amino-4-cyclohexyl-2-hydroxybutyric acid isopropyl ester] | 68 | 1200 |  |  |
| CC(C)OC(=O)C(O)[C@H](CC1CCCCC1)NC(=O)[C@H](Cc1c[nH]cn1)NC(=O)C(Cc1ccccc1C#N)Cc1ccccc1C#N (mixture of isomers) [Compound T, (2RS, 3S)-3-{N-[Bis(2-cyanobenzyl)acetyl]-L-histidyl}amino-4-cyclohexyl-2-hydroxybutyric acid isopropyl ester] |  |  | 190 | 280 |
| Cc1cccc(CC(Cc2cccc(C)c2)C(=O)N[C@@H](Cc2c[nH]cn2)C(=O)N[C@@H](CC2CCCCC2)C(O)C(=O)OC(C)C)c1 (mixture of isomers) [Compound Q, (2RS, 3S)-3-{N-[Bis(3-methylbenzyl)acetyl]-L-histidyl}amino-4-cyclohexyl-2-hydroxybutyric acid isopropyl ester] |  |  | 60 | 540 |
| COc1ccccc1CC(Cc1ccccc1OC)C(=O)N[C@@H](Cc1c[nH]cn1)C(=O)N[C@@H](CC1CCCCC1)C(O)C(=O)OC(C)C (mixture of isomers) [Compound R, (2RS, 3S)-3-{N-[Bis(2-methoxybenzyl)acetyl]-L-histidyl}amino-4-cyclohexyl-2-hydroxybutyric acid isopropyl ester] |  |  | 170 | 360 |
| (2RS, 3S)-3-{N-[Bis(2-chlorobenzyl)acetyl]-L-histidyl}amino-4-cyclohexyl-2-hydroxybutyric acid butyric acid isopropyl ester [Compound U] | 63 | 430 |  |  |
| Cc1cccc(C)c1CC(Cc1c(C)cccc1C)C(=O)N[C@@H](Cc1c[nH]cn1)C(=O)N[C@@H](CC1CCCCC1)C(O)C(=O)OC(C)C (mixture of isomers) [Compound G, (2RS, 3S)-3-{N-[Bis(2,6-dimethylbenzyl)acetyl]-L-histidyl}amino-4-cyclohexyl-2-hydroxybutyric acid isopropyl ester] |  |  | 900 | 3300 |
| CC(C)OC(=O)C(O)[C@H](CC1CCCCC1)NC(=O)[C@H](Cc1c[nH]cn1)NC(=O)C(Cc1cccc2ccccc12)Cc1cccc2ccccc12 (mixture of isomers) [Compound L, (2RS, 3S)-3-{N-[Bis(1-naphthylmethyl)acetyl]-L-histidyl}amino-4-cyclohexyl-2-hydroxybutyric acid isopropyl ester] |  |  | 49 | 430 |
| CC(C)OC(=O)C(O)[C@H](CC1CCCCC1)NC(=O)[C@H](Cc1c[nH]cn1)NC(=O)C(Cc1cccc(F)c1)Cc1cccc(F)c1 (mixture of isomers) [Compound D, (2RS, 3S)-3-{N-[Bis(3-fluorobenzyl)acetyl]-L-histidyl}amino-4-cyclohexyl-2-hydroxybutyric acid isopropyl ester] |  |  | 18 | 250 |
| CC(C)OC(=O)C(O)[C@H](CC1CCCCC1)NC(=O)[C@H](Cc1c[nH]cn1)NC(=O)C(Cc1ccc2c(c1)OCO2)Cc1ccc2c(c1)OCO2 (mixture of isomers) [Compound V, (2RS, 3S)-3-{N-[Bis(3,4-methylenedioxybenzyl)acetyl]-L-histidyl}amino-4-cyclohexyl-2-hydroxybutyric acid isopropyl ester] |  |  | 910 | 2600 |
| O=C(N[C@@H](Cc1c[nH]cn1)C(=O)N[C@@H](CC1CCCCC1)C(O)C(=O)OC1CCCC1)C(Cc1ccccc1F)Cc1ccccc1F (mixture of isomers) [Compound N, (2RS, 3S)-3-{N-[Bis(2-fluorobenzyl)acetyl]-L-histidyl}amino-4-cyclohexyl-2-hydroxybutyric acid cyclopentyl ester] |  |  | 29 | 230 |
